Experiment: Reduction of body weight with harmine in mice (intraperitoneal injection, 4 weeks)
Assay type: in vivo
Conditions: intraperitoneal in saline, 4 weeks (30 days), initial body weight 30 g
Description: In order to determine the effect of harmine and harmine derivatives in reducing body weight, we administered harmine to mice and tracked their body weights for 4 weeks (30 days). Harmine was solublized in saline and administered via intraperitoneal injection. Animals were weighed weekly.
Mice (6 per group) were divided into seven groups and given one of the following treatments: • 1. 5 mg harmine/kg body weight (Low) • 2. 10 mg harmine/kg body weight (Med) • 3. 20 mg harmine/kg body weight (High) • 4. Saline • 5. 3 mg/kg body weight (Positive control 2) • 6. 5 mg/kg body weight (Positive control low) • 7. 10 mg/kg body weight (Positive control high)
Even at the low dose, the animals lost more than 5% of their body weight.

COc1ccc2c(c1)[nH]c1c(C)nccc12 [harmine]
reduction in body weight (highest dose 20 mg harmine/kg body weight): 6% | reduction in body weight (low dose 5 mg harmine/kg body weight): more than 5%

Source: patent US20100173931A1, “HARMINE DERIVATIVES FOR REDUCING BODY WEIGHT” (OsteoGeneX Inc., priority 2009, published 2010)
